Assay results reported in patent US12590953B2, “Methods for screening cereblon modifying compounds” (CELGENE CORPORATION, priority 2018, dated 2026).
“Also recorded” adds a separate entry of the source.

Tests used:
[1] = tested on: rabbit SALL4 zinc finger / rabbit cereblon; test: In vitro ubiquitination of rabbit SALL4 zinc finger by rabbit cereblon; format: biochemical; conditions: rabbit zinc finger amino acids 357-385; with thalidomide
Experimental: Full length human cereblon, full length mouse cereblon, and full length rabbit cereblon were co-expressed with full length human DDB1 in SF9 insect cells in ESF921 medium in the presence of 50 uM zinc acetate. Cells were resuspended in buffer containing 50 mM Tris-HCl pH 7.5, 500 mM NaCl, 10 mM imidazole, 10% glycerol, 2 mM TCEP, 1× Protease Inhibitor Cocktail (San Diego Bioscience), and 40,000 U Benzonase (Novagen), and sonicated for 30 s. Lysate was clarified by high speed spin at 30,000 rpm for 30 minutes, and clarified lysate was incubated with Ni-NTA affinity resin (Qiagen) for 1 hour. Complex was eluted with buffer containing 500 mM imidazole, and the ZZ-domain-6×His tag removed by thrombin cleavage (Enzyme Research) overnight, combined with dialysis in 10 mM imidazole buffer. Cleaved eluate was incubated with Ni-NTA affinity resin (Qiagen), and the flow-through diluted to 200 mM NaCl for further purification over a Sephacryl S-400 16/60 column (GE Healthcare) in buffer containing 10 mM HEPES pH 7.0, 240 mM NaCl, and 3 mM TECP.
Purified E1, E2, ubiquitin, Cul4A-Rbx1, cereblon-DDB1, and GSPT1 proteins were used to reconstitute the ubiquitination of MBP-fused WT and mutant proteins in vitro. Substrate proteins purified by maltose affinity resin (NEB) were incubated at an approximate concentration of 30 uM. […]

SALL4 = SALL4 immunohistochemistry in rabbit embryos; format: in vivo; conditions: pregnant rabbits, 180 mg/kg per day from GD7, embryos GD8-12; 180 mg/kg/day
Experimental: All animals were housed and fed according to IACUC approved procedures. The rabbits either remained untreated (n=4 per time point) or received 180 mg/kg of Thalidomide per day (n=5 per time point) starting on GD7. Dose levels and sensitive gestation windows were selected based on previously reported finding in Thalidomide teratogenicity studies (Christian MS, birth defect research, 2007)
Cesarean sections were performed in each rabbit 3 hours after the last Thalidomide dose to ensure maximum plasma concentration of Thalidomide (CMax=3 hours) (Hui et al, Reproductive Toxicology, 2014). The uteri were removed, the implantation sites were counted and mortality and resorptions noted during embryo dissection. GD8 embryos were not dissected and were fixed in situ attached to the placental site and uterine wall. The entire implantation site was processed, embedded in paraffin and sectioned at 4 microns for immunohistochemistry. GD 9-12 embryos were collected with fetal membranes, fixed in 10% Neutral Buffered Formalin for 24 hours and transferred to 70% Ethanol. After fixation fetal membranes were removed and embryos processed, embedded in paraffin and sectioned at 4 microns for immunohistochemistry and in situ hybridization procedures.
Rabbit embryos were stained for SALL4, and mouse testis were stained for SALL4 and ZFP91. […]

O=C1CCC(N2C(=O)c3ccccc3C2=O)C(=O)N1 (centres unmarked) [thalidomide]
Ubiquitination of rabbit SALL4 zinc finger (orthologous to human ZF2) by rabbit cereblon [1]: could be ubiquitinated by rabbit cereblon in a thalidomide-dependent manner | SALL4 levels in embryos (SALL4): significant decrease in SALL4 levels which was most pronounced on GD12; also recorded: downregulation of SALL4 levels in rabbit embryos
